The values below come from PubChem BioAssay AID288 (DTP/NCI, 2004).

Molecules are shown by their SMILES. Values joined by “and” are separate entries in the source; they are usually repeats but may differ in a detail not shown here. Equal values may be shown once. Results filed as inconclusive are left out.

In this assay the test system is BDF1 mice, M5076 sarcoma s.c., survival/tumor T/C. Put plainly: NCI In Vivo Anticancer Drug Screen. Data for tumor model Sarcoma M5076 (subcutaneous) in B6D2F1 (BDF1) mice. On the procedure:
The antitumor activity of compounds was measured in mice bearing transplantable tumors. Survival or tumor size were measured and the results are expressed as the measurement made in the treated group (T) divided by the measurement made in the vehicle treated control group (C). The tumor model used in this assay is Sarcoma M5076 (subcutaneous) in B6D2F1 (BDF1) mice

Setting [1] is: endpoint: mean tumor weight, dose: 2.0 mg/kg/injection, schedule: Q02DX011 (ip), vehicle: saline, higher = larger tumour.
Where [2] appears, read: endpoint: median survival time, dose: 50.0 mg/kg/injection, schedule: Q01DX009 (ip), vehicle: saline with Tween-80, higher = longer survival.
The mark [3] stands for this setting: endpoint: median survival time, dose: 100.0 mg/kg/injection, schedule: Q01DX009 (ip), vehicle: saline with Tween-80, higher = longer survival.
Where [4] appears, read: endpoint: median survival time, dose: 200.0 mg/kg/injection, schedule: Q01DX009 (ip), vehicle: saline with Tween-80, higher = longer survival.
Setting [5] is: endpoint: median tumor weight (est.), dose: 50.0 mg/kg/injection, schedule: Q01DX009 (ip), vehicle: saline with Tween-80, higher = larger tumour.
The mark [6] stands for this setting: endpoint: median tumor weight (est.), dose: 100.0 mg/kg/injection, schedule: Q01DX009 (ip), vehicle: saline with Tween-80, higher = larger tumour.
Setting [7] is: endpoint: median tumor weight (est.), dose: 200.0 mg/kg/injection, schedule: Q01DX009 (ip), vehicle: saline with Tween-80, higher = larger tumour.

As for `OC(C1CO1)C(O)C1CO1` (stereo not given), the T/C by setting is: (endpoint: mean tumor weight, dose: 1.0 mg/kg/injection, schedule: Q02DX011 (ip), vehicle: saline, higher = larger tumour) 58 % of control; under setting [1], 10 % of control and 12 % of control; (endpoint: median survival time, dose: 2.0 mg/kg/injection, schedule: Q01DX009 (ip), vehicle: saline, higher = longer survival) 122 % of control; (endpoint: median tumor weight (est.), dose: 1.0 mg/kg/injection, schedule: Q02DX011 (ip), vehicle: saline, higher = larger tumour) 67 % of control; (endpoint: median tumor weight (est.), dose: 2.0 mg/kg/injection, schedule: Q01DX009 (ip), vehicle: saline, higher = larger tumour) 29 % of control; (endpoint: median tumor weight (est.), dose: 2.0 mg/kg/injection, schedule: Q02DX011 (ip), vehicle: saline, higher = larger tumour) 1 % of control and 8 % of control.
In the case of `CC1(C)COCN1COCCOCN1COCC1(C)C`, the T/C is, setting by setting: (endpoint: median survival time, dose: 50.0 mg/kg/injection, schedule: Q04DX003 (ip), vehicle: saline, higher = longer survival) 103 % of control; (endpoint: median survival time, dose: 100.0 mg/kg/injection, schedule: Q04DX003 (ip), vehicle: saline, higher = longer survival) 95 % of control.
In the case of `COc1cccc(/C=N/NP(=S)(Oc2ccc(C(C)(C)C)cc2)Oc2ccc(C(C)(C)C)cc2)c1OC`, the T/C runs as follows: under setting [2], 94 % of control; under setting [3], 94 % of control; under setting [4], 100 % of control; under setting [5], 122 % of control; under setting [6], 100 % of control; under setting [7], 74 % of control.
As to `N[C@H](C(=O)O)[C@@H]1CC(Cl)=NO1`, the T/C reads like this: under setting [1], 2 % of control; (endpoint: median survival time, dose: 2.0 mg/kg/injection, schedule: Q01DX010 (ip), vehicle: saline, higher = longer survival) 165 % of control; (endpoint: median survival time, dose: 4.0 mg/kg/injection, schedule: Q01DX010 (ip), vehicle: saline, higher = longer survival) 177 % of control; (endpoint: median survival time, dose: 8.0 mg/kg/injection, schedule: Q01DX010 (ip), vehicle: saline, higher = longer survival) 178 % of control; (endpoint: median survival time, dose: 16.0 mg/kg/injection, schedule: Q01DX010 (ip), vehicle: saline, higher = longer survival) 90 % of control; (endpoint: median survival time, dose: 32.0 mg/kg/injection, schedule: Q04DX005 (ip), vehicle: saline, higher = longer survival) 171 % of control and 176 % of control. In addition, the T/C (endpoint: median survival time, dose: 64.0 mg/kg/injection, schedule: Q04DX005 (ip), vehicle: saline, higher = longer survival) is 184 % of control and 186 % of control; the T/C (endpoint: median survival time, dose: 128.0 mg/kg/injection, schedule: Q04DX005 (ip), vehicle: saline, higher = longer survival) is 193 % of control and 195 % of control.
Turning to `COc1ccc(/C=N/NC(=O)C(=O)Nc2ccc(Cl)c([N+](=O)[O-])c2)cc1OC`, the T/C is 97 % of control under setting [2]; 88 % of control under setting [3]; 97 % of control under setting [4]; 96 % of control under setting [5]; 90 % of control under setting [6]; 86 % of control under setting [7].
With `COc1ccc(/C=C2\SC(=O)N(C)C2=O)cc1OC`, the T/C was 93 % of control under setting [2]; 100 % of control under setting [3]; 93 % of control under setting [4]; 104 % of control under setting [5]; 110 % of control under setting [6]; 77 % of control under setting [7].
Turning to `CC1(C)OCC(CO)(Nc2nc(N3CC3)nc(N3CC3)n2)CO1`, the T/C was 98 % of control (endpoint: median survival time, dose: 0.78 mg/kg/injection, schedule: Q02DX011 (ip), vehicle: saline, higher = longer survival); 110 % of control (endpoint: median survival time, dose: 1.56 mg/kg/injection, schedule: Q02DX011 (ip), vehicle: saline, higher = longer survival); 164 % of control (endpoint: median survival time, dose: 3.12 mg/kg/injection, schedule: Q02DX011 (ip), vehicle: saline, higher = longer survival).
Regarding `Nc1nc2c(c(=O)[nH]1)N(C=O)C(CNc1ccc(C(=O)N[C@@H](CCC(=O)O)C(=O)O)cc1)CN2` (stereo not given in full), the T/C was 101 % of control (endpoint: median survival time, dose: 50.0 mg/kg/injection, schedule: Q01DX009 (ip), vehicle: sodium bicarbonate, higher = longer survival); 96 % of control (endpoint: median survival time, dose: 100.0 mg/kg/injection, schedule: Q01DX009 (ip), vehicle: sodium bicarbonate, higher = longer survival); 101 % of control (endpoint: median survival time, dose: 200.0 mg/kg/injection, schedule: Q01DX009 (ip), vehicle: sodium bicarbonate, higher = longer survival).
With `CC1CCC(NC(=O)N(CCF)N=O)CC1` (stereo not given), the T/C is, setting by setting: (endpoint: median survival time, dose: 30.0 mg/kg/injection, schedule: Q01DX003 (ip), vehicle: saline with Tween-80, higher = longer survival) 157 % of control; (endpoint: median survival time, dose: 50.0 mg/kg/injection, schedule: Q01DX001 (ip), vehicle: saline with Tween-80, higher = longer survival) 152 % of control.
With `CNC(=O)c1ccccc1C1(O)c2ccccc2CCc2ccccc21`, the T/C under setting [2] is 109 % of control and the T/C under setting [4] was 100 % of control.
In the case of `COC(=N)CCCCC(=N)OC`, the T/C is 98 % of control (endpoint: median survival time, dose: 50.0 mg/kg/injection, schedule: Q01DX009 (ip), vehicle: saline, higher = longer survival); 98 % of control (endpoint: median survival time, dose: 100.0 mg/kg/injection, schedule: Q01DX009 (ip), vehicle: saline, higher = longer survival); 98 % of control (endpoint: median survival time, dose: 200.0 mg/kg/injection, schedule: Q01DX009 (ip), vehicle: saline, higher = longer survival); 87 % of control (endpoint: median tumor weight (est.), dose: 50.0 mg/kg/injection, schedule: Q01DX009 (ip), vehicle: saline, higher = larger tumour); 86 % of control (endpoint: median tumor weight (est.), dose: 100.0 mg/kg/injection, schedule: Q01DX009 (ip), vehicle: saline, higher = larger tumour).
On to `COc1cc(-c2ccc(NC(=O)NC3CC3)c(OC)c2)ccc1NC(=O)NC1CC1`, for which the T/C runs as follows: under setting [2], 101 % of control; under setting [3], 93 % of control; under setting [4], 88 % of control; under setting [5], 101 % of control; under setting [6], 84 % of control.
As for `Cc1c(N)nc([C@H](CC(N)=O)NC[C@H](N)C(N)=O)nc1C(=O)N[C@H](C(=O)N[C@H](C)[C@@H](O)[C@H](C)C(=O)N[C@H](C(=O)NCCc1nc(-c2nc(C(=O)NCCC[S+](C)C)cs2)cs1)[C@@H](C)O)C(OC1OC(CO)C(O)C(O)C1OC1OC(CO)C(O)C(OC(N)=O)C1O)c1cnc[nH]1` (stereo not given in full), the T/C is 108 % of control (endpoint: median survival time, dose: 1.6 mg/kg/injection, schedule: Q04DX009 (ip), vehicle: saline, higher = longer survival) and 115 % of control (endpoint: median survival time, dose: 3.2 mg/kg/injection, schedule: Q04DX009 (ip), vehicle: saline, higher = longer survival).
With `CC(=O)Nc1ccc(OC(=O)Nc2ccc(C)c(NC(=O)Oc3ccc(NC(C)=O)cc3)c2)cc1`, the T/C by setting is: under setting [2], 113 % of control; under setting [3], 95 % of control; under setting [5], 47 % of control; under setting [6], 187 % of control.
